For assay [1], the system named is UMR 106-01 cells. In words: Competition for 125I collagenase-3 binding in UMR 106-01 cells. Details: species or system rat. The conditions noted are these: for competition efficiency compared to full-length collagenase-3: 125I mouse collagenase-3; for percent of mouse collagenase-3 binding, UMR-106-01: competitor at 200-, 400- and 800-fold excess over 125I mouse collagenase-3, ± S.E.M., seven pooled experiments; for competition for 125I mouse collagenase-3 binding (in words): compared to full-length MMP-13. As to the method: (§1) For all binding experiments, cells were seeded into 2.0 cm^2 wells. After the cells reached approximately 95% confluence, the medium was replaced with fresh medium containing 1 mg/ml BSA and the cells were assayed for binding 4 h later. The cells were first washed with maintenance medium, then incubated in the same medium with 0.01% Tween 80 containing ^125I-rat collagenase-3 or other iodinated ligands at 4° C. for 2 h. Non-specific binding was assessed by adding a 50-100-fold excess of cold ligand to half the wells, while an equivalent volume of buffer was added to the remaining wells. After incubation, the wells were washed three times with ice-cold MEM (0.5 ml). The cells were then lysed with 500 μl of 1 M NaOH and the lysates were counted on a gamma counter. Protein labeling with ^125I was done using the chloramine T method (Greenwood et al., 1963, Biochem. J. 89:114). The proteins had specific activities ranging from 9 to 27 μCi/μg.
(§2) These proteins were used as competitors in a series of binding assays in UMR cells using ^125I mouse collagenase-3. Radioactive labeling and binding assays were performed as in Example 1.

The subject of assay [2] is MEF-1 mouse embryo fibroblasts. Kind of assay: Competition for 125I collagenase-3 binding in MEF-1 cells. Conditions: competitor at 200-, 400- and 800-fold excess over 125I mouse collagenase-3; ± S.E.M., triplicate wells. As to the method: as §1
(§3) In order to exclude the possibility that the collagenase-3 receptor is the low density lipoprotein receptor-related protein, two cell lines of mouse embryo fibroblasts were used: wild-type (MEF-1) and low density lipoprotein receptor-related protein-null (MEF-2) (both provided by Dr. Joachim Herz). These cells were cultured in Dulbecco's MEM with 10% FBS, 10 units penicillin/ml, 10 μg streptomycin/ml.
as §2
(§4) This region thus appears to be the high-affinity binding domain recognized by the collagenase-3 receptor, and the other two domains (SEQ ID's NO:1 and 3) may be recognized by the lower-affinity low density lipoprotein receptor-related protein or may alternatively stabilize the interaction with the collagenase-3 receptor. To investigate the contribution of each receptor, two mouse embryo fibroblast (MEF) cell lines were utilized. The MEF-1 cell line is known to express both the collagenase-3 receptor and the low density lipoprotein receptor-related protein, while the MEF-2 cell line has been rendered low density lipoprotein receptor-related protein-null. […] This hypothesis is confirmed by the data on Table 4.

For assay [3], the system named is UMR 106-01 rat osteosarcoma cells. Kind of assay: Binding of 125I-labeled proteinases to UMR 106-01 cells. The conditions noted are these: for binding to UMR cells (in words): 125I-labeled protein, direct binding; for Specific binding: 125I-labeled ligand 8 nM, means ± SEM for triplicate wells.
The subject of assay [4] is MEF-2 (LRP null) mouse embryo fibroblasts. In words: Competition for 125I collagenase-3 binding in MEF-2 (LRP null) cells. Conditions: for percent of mouse collagenase-3 binding, MEF-2 (LRP null): competitor at 200-, 400- and 800-fold excess over 125I mouse collagenase-3, ± S.E.M., triplicate wells; for competition for receptor binding in MEF-2 cells (in words): compared to MEF-1 cells. As to the method: as §1, §3, §2, §4

The test system of assay [5] is UMR 106-01 cells. In words: Internalization assay in UMR 106-01 cells. The class given is cell-based, rat. As to the method:
Although the low density lipoprotein receptor-related protein is not required for rat collagenase-3 binding to the cell, it might be required for ligand internalization. Therefore, internalization assays were performed with ^125I-rat collagenase-3 using MEF-1 and MEF-2 cells as follows. After binding 125I-rat labeled proteins as above, the cells were washed three times with cold modified Eagle's media (0.5 ml) to remove unbound ligand. The cells were then warmed to 37° C. by the addition of prewarmed modified Eagle's media (0.25 ml), and incubated at 37° C. for selected intervals. At each time point, the media were collected, and the cells were washed once with ice-cold MEM, then incubated with 0.25% Pronase®-E in modified Eagle's media for 15 min at 4° C. to strip cell surface proteins. The cell suspension was then centrifuged, and the radioactivity associated with cell pellets (defining internalized ^125I-proteins) was measured at each time point.
It is known that RAP inhibits internalization of ligands by the low density lipoprotein receptor-related protein (Kounnas et al., 1996, J. Biol. Chem 271:6523). Therefore, internalization assays were performed using ^125I-labeled rat collagenase-3 as a ligand and receptor-associated protein as a competitor. Human receptor-associated protein from the pGEX-receptor-associated protein expression vector (provided by Dr. Joachim Herz, University of Texas Southwestern Medical Center, Dallas, Tex.) was expressed in bacteria and prepared as described in Herz et al., 1991, J. Biol. Chem. 266:21232.
To investigate the mechanism by which RAP regulates internalization of collagenase-3, an experiment was performed where excess unlabeled RAP or rat collagenase-3 was prebound to UMR 106-01 cells. Binding and internalization of ^125I-labeled rat collagenase-3 and RAP were then allowed to proceed.

A further assay deals with T1, collagenase-3 receptor (Rattus norvegicus, UniProt Q4TU93).
T1 construct: endogenous in cells; host or cells: UMR 106-01 rat osteosarcoma cells
T1 sequence (Q4TU93 31-1480): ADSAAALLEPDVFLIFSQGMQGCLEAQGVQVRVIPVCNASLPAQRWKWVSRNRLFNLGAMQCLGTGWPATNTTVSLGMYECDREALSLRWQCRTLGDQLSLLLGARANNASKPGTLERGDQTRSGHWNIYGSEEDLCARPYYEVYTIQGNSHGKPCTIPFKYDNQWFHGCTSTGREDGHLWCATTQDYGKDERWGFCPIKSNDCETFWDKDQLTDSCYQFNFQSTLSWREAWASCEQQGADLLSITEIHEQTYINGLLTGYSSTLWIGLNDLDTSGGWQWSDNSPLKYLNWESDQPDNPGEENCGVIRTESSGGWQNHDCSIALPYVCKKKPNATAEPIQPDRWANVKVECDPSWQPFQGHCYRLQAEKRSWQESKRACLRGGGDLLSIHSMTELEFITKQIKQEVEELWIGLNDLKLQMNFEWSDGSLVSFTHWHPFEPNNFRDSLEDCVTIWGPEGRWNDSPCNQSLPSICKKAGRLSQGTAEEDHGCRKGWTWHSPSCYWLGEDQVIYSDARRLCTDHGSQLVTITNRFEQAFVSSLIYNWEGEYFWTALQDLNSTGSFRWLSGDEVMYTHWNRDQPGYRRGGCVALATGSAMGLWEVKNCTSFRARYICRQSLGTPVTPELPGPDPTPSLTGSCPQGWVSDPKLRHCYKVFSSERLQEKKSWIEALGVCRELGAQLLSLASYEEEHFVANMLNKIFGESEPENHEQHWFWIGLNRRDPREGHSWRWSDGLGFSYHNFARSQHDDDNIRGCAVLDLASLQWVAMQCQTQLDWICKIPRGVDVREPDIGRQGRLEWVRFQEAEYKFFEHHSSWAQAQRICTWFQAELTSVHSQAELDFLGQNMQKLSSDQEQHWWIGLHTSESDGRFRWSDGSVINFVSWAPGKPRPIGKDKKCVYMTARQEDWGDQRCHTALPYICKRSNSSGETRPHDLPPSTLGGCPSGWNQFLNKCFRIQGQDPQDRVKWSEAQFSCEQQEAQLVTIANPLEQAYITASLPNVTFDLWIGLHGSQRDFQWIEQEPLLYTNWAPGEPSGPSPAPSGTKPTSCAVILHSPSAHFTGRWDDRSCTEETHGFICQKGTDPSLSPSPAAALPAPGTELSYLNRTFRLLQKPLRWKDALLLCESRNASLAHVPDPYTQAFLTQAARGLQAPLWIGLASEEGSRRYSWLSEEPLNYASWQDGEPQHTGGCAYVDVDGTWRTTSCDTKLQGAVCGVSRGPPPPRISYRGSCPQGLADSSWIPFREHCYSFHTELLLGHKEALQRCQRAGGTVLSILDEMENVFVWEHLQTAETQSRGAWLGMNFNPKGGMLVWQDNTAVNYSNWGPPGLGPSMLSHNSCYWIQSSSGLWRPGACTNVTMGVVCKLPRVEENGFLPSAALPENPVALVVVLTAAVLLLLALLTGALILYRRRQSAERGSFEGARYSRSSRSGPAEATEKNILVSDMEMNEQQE
Kind of assay: Scatchard analysis of 125I-mMMP-13 binding to UMR 106-01 cells, high affinity site. As to the method: as §1
(§5) The recombinant mouse MMP-13 has essentially equivalent catalytic, kinetic, and binding activity as the rat MMP-13 homolog utilized in Example 1.

The target of assay [6] is T2, low density lipoprotein receptor-related protein (Rattus norvegicus, UniProt G3V928).
T2 construct: endogenous in cells; host or cells: UMR 106-01 rat osteosarcoma cells
Kind of assay: Scatchard analysis of 125I-mMMP-13 binding to UMR 106-01 cells, lower affinity site. On the procedure: as §1, §5

T2 sequence (G3V928 20-3944 limits assumed): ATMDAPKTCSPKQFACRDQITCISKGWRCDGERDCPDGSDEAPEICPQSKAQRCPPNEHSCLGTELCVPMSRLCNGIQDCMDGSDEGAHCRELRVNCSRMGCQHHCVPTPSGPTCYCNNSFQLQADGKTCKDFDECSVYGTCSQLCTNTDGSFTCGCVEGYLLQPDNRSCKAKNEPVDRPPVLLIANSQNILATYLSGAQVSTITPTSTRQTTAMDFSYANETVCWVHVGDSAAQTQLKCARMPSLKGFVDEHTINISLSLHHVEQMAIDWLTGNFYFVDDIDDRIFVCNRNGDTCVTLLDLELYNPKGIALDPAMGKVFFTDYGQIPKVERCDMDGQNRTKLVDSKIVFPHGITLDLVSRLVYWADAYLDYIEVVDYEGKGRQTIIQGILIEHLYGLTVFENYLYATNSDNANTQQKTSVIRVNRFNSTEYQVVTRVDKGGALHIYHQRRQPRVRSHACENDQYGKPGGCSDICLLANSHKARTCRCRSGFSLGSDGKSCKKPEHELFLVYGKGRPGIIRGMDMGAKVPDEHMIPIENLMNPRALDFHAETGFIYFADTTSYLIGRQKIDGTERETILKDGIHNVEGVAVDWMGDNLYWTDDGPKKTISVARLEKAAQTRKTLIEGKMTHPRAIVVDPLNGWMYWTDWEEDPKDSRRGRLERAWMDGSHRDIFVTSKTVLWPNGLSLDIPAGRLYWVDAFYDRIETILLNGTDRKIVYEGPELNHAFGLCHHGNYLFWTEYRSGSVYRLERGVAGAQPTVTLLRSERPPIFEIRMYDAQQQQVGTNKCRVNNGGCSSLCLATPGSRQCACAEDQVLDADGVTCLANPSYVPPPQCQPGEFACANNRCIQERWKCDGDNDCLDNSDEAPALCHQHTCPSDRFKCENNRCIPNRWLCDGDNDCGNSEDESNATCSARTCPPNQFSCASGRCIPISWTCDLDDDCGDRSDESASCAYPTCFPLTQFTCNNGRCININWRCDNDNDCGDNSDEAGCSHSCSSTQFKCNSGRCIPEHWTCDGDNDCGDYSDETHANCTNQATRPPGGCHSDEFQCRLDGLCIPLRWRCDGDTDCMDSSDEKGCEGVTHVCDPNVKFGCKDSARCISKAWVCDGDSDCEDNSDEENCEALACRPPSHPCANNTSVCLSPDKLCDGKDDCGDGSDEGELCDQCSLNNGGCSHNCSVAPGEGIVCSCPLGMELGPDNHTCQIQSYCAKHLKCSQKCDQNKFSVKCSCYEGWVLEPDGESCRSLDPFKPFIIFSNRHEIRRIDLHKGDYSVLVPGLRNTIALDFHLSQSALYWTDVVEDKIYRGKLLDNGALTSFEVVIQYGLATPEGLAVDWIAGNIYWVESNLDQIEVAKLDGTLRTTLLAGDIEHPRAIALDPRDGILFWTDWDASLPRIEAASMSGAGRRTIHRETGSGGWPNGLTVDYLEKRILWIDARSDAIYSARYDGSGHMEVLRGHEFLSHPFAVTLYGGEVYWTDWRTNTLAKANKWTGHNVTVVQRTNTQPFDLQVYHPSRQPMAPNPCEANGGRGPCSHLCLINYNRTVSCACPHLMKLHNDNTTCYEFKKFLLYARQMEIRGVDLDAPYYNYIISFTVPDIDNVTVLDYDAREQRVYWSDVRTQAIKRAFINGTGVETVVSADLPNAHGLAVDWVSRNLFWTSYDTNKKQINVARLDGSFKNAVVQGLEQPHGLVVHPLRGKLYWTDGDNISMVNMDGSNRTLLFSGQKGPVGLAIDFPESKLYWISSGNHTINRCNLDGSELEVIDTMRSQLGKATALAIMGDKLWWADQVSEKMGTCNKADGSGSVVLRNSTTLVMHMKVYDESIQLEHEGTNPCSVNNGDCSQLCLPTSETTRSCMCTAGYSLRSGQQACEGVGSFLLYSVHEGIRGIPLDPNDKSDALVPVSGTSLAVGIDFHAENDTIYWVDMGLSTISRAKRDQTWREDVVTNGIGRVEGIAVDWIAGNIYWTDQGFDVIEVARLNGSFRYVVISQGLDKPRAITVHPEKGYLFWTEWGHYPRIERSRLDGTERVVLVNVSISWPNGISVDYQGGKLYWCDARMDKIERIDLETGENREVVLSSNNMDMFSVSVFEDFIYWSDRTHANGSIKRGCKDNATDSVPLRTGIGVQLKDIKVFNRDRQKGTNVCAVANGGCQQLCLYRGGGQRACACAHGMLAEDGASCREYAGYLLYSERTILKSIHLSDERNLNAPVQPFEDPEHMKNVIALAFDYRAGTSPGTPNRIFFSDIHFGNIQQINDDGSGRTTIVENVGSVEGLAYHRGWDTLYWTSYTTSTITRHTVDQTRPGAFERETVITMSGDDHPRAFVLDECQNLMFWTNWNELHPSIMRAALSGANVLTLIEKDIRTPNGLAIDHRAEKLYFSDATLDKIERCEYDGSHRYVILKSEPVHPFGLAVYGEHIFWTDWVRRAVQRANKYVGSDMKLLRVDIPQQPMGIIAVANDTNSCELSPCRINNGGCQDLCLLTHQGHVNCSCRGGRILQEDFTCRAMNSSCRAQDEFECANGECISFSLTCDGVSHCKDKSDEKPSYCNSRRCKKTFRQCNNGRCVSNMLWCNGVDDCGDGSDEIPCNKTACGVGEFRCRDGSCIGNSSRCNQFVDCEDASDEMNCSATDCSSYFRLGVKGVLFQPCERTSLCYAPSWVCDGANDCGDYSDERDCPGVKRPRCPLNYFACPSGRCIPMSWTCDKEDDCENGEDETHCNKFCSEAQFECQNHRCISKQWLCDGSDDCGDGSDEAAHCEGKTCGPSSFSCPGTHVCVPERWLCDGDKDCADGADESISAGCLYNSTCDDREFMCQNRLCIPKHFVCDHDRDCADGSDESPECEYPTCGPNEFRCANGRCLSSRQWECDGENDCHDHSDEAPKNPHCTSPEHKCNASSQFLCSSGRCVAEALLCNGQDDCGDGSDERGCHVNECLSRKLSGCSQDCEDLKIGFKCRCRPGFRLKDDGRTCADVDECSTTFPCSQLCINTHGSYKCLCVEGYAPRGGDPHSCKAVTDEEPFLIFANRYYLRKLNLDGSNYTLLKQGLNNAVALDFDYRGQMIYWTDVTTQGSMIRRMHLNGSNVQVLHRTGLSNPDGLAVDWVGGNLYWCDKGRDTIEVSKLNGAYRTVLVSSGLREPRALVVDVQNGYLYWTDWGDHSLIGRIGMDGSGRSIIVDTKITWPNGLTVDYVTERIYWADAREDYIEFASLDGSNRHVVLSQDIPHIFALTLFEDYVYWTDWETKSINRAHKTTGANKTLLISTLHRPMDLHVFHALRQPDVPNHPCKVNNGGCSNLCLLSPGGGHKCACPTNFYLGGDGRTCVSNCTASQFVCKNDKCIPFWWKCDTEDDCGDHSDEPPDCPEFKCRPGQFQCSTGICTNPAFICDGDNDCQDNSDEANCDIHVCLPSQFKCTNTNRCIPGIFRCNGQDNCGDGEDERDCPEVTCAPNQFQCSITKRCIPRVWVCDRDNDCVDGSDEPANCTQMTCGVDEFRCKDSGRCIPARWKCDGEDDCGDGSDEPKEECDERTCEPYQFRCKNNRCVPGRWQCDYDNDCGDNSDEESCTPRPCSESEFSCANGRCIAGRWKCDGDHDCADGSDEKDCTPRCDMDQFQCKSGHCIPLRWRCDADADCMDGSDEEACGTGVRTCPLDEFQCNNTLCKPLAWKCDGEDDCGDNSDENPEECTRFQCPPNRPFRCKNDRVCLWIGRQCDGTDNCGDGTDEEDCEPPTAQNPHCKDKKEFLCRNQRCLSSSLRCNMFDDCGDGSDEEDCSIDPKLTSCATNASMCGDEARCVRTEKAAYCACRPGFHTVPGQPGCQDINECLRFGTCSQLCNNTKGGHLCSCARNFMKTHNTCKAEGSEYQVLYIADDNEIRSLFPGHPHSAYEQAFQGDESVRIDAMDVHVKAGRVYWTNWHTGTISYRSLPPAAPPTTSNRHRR
T2 sequence (G3V928 3945-4545 partner limits assumed): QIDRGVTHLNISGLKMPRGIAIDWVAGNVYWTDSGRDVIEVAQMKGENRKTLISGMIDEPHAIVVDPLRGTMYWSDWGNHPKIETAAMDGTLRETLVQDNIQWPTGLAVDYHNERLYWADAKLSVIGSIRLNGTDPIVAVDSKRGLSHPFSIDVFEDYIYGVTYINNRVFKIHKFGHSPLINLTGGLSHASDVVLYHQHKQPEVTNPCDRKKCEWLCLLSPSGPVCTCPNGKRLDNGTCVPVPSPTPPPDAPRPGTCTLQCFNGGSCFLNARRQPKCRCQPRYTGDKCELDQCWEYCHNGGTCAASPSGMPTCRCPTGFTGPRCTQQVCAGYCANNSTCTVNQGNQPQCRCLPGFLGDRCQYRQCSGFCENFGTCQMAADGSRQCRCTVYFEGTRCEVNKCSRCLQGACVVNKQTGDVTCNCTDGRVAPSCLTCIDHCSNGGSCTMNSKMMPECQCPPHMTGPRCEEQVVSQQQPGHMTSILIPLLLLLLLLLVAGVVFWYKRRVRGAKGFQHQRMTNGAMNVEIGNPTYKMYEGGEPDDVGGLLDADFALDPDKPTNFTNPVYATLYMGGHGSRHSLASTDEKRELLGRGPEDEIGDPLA

Turning to “H/M (229-472): chimeric collagenase: human MMP-1 N-terminus, mouse MMP-13 residues 229-472”, in the assay with UMR 106-01 cells [1], the “competition efficiency compared to full-length collagenase-3” value is on record as below 17% and the “percent of mouse collagenase-3 binding, UMR-106-01” value (from here on “percent … UMR-106-01”) is recorded as 16.5 ± 5.8%. Also, the “percent of mouse collagenase-3 binding, MEF 1” value (“percent … MEF 1” for short) in assay [2] is on record as 2.2 ± 1.1%.
With “HM (141-228)/H: chimeric collagenase: mouse MMP-13 residues 141-228 in human MMP-1”, the “binding to UMR cells (in words)” value in assay [3] is given as “capable of binding specifically to UMR cells”. In the assay with UMR 106-01 cells [1], the “competition efficiency compared to full-length collagenase-3” value came to 90% and the “percent … UMR-106-01” value was determined as 89.9 ± 5.3%. For the same substance, the “percent … MEF 1” value in assay [2] is 94.3 ± 4.7%. Moreover, in assay [4], the “percent of mouse collagenase-3 binding, MEF-2 (LRP null)” value (shortened to “percent … (LRP null)”) was 75.1 ± 13.7%. Also, the “endocytosis of iodinated construct compared to full-length collagenase-3 (in words)” value with UMR 106-01 cells [5] is “significantly reduced endocytosis”.
Turning to “HM (166-228)/H: chimeric collagenase: mouse MMP-13 residues 166-228 in human MMP-1”, in the assay with UMR 106-01 cells [1], the “competition for 125I mouse collagenase-3 binding (in words)” value is listed as “impaired ability to compete for receptor binding” and the “percent … UMR-106-01” value is 67.8 ± 3.4%. For the same substance, the “percent … MEF 1” value in assay [2] is reported as 80.8 ± 6.0%. Further, the “percent … (LRP null)” value in assay [4] turned out to be 97.2 ± 1.7%.
Consider “HM/M (141-472): chimeric collagenase: human MMP-1 N-terminus, mouse MMP-13 residues 141-472”, for which the “percent … UMR-106-01” value in the assay with UMR 106-01 cells [1] is reported as 95.7 ± 3.9%. In assay [2], the “percent … MEF 1” value is given as 84.4 ± 6.1%. Also, the “competition for receptor binding in MEF-2 cells (in words)” value in assay [4] is “significantly impaired ability to compete for receptor binding”.
As for “Human MMP-1: human fibroblast collagenase-1 (interstitial collagenase)”, the Specific binding in assay [3] turned out to be 0.1 ± 1.4 fmol/2.6 × 10^5 cells. Also, the “percent … UMR-106-01” value in the assay with UMR 106-01 cells [1] is 0%.
“Human MMP-3: human stromelysin-1 (MMP-3)”: the Specific binding in assay [3] is recorded as 0.0 ± 0.0 fmol/2.6 × 10^5 cells.
With “M (1-228)/H: chimeric collagenase: mouse MMP-13 residues 1-228, remainder human MMP-1”, in assay [3], the “binding to UMR cells (in words)” value is “capable of binding specifically to UMR cells”. Also, in the assay on UMR 106-01 cells [1], the “competition efficiency compared to full-length collagenase-3” value is “greater than 90%” and the “percent … UMR-106-01” value was determined as 85.3 ± 3.0%. Further, the “percent … MEF 1” value in assay [2] came out at 85.9 ± 10.5%. Besides, in assay [4], the “competition for receptor binding in MEF-2 cells (in words)” value is recorded as “impaired binding in MEF-2 cells” and the “percent … (LRP null)” value worked out at 41.9 ± 9.7%. The “endocytosis of iodinated construct compared to full-length collagenase-3 (in words)” value in the assay on UMR 106-01 cells [5] is “significantly reduced endocytosis”.
For the substance “MMP-13 (1-265): C-terminally truncated mouse collagenase-3”, in the assay on UMR 106-01 cells [1], the “competition for 125I mouse collagenase-3 binding (in words)” value was “essentially equivalent manner compared to full-length MMP-13” and the “percent … UMR-106-01” value is on record as 100%. The “percent … MEF 1” value in assay [2] came to 100%.
For “MMP-13 (1-472): recombinant full-length mouse collagenase-3, residues 1-472”, the “binding to UMR cells (in words)” value in assay [3] is “binds equally as well as the rat enzyme”; in assay [3] (listed as mMMP-13), “specifically and saturably”. For the same substance, the “Bmax, high affinity site” value with collagenase-3 receptor (Scatchard analysis) is 73.9 pmol/10^5 cells; with collagenase-3 receptor (computer analysis with the GraphPad InPlot program) it was 75 pmol/10^5 cells. The results for the “Bmax, lower affinity site” value in assay [6] (Scatchard analysis) and in assay [6] (computer analysis) were 660 pmol/10^5 cells and 834 pmol/10^5 cells, respectively.
